Results: EP0059606A1, “Benzothiopyrano(2,3-d)-v-triazole derivatives and pharmaceutical compositions containing them” (BEECHAM GROUP PLC, priority 1981, dated 1982)

Test system: rat PCA
Experiment: Passive cutaneous anaphylaxis (PCA) in rats
Format: in vivo
Details: iv, 0 h, dose 0.5 mg/kg, carrier PBS with NaHCO3, time 0 mins between administration and antigen challenge
Method: Serum containing heat labile homocytotropic antibody was raised in rats to crystallised ovalbumin (Grade 3 Sigma) by the Method of I. Mota (Immunology 7, 681 (1964)) using Bordetella pertussis vaccine ([…] Burroughs Welcome) as adjuvant.
Passive cutaneous anaphylaxis (PCA) was carried out by a method based on that of Ovary and Bier, (Proc. Soc. Exp. Bio. Med., 81; 584 (1952)) as modified by Goose and Blair (Immunology, 16, 749 (1969)) Male Sprague Dawley rats 230 - 340 gm were given 0.1 ml of each of six two fold serial dilutions of pooled antiserum in 0.9% saline (Polyfusor Boots) injected intradermally into separate sites on their shaved backs. 72 Hours later the rats were challenged by intravenous injection of 0.3 ml of a 1% solution of ovalbumin in isotonic saline buffered with 0.05M, pH 7.2 Sorenson Buffer (Bactohaemagglutination buffer Difco Laboratories), mixed with 0.2 ml of a 5% solution of Pontamine Sky Blue (6 BX C.l. 24410 Raymond A Lamb) in isotonic saline. The rats were killed after 20 minutes and the diameter of the blue wheals at the antibody injection sites was measured on the outer surface of the skin. The starting dilution of the serum was adjusted so that there was no response, after challenge, at the injection site of the highest dilution and a maximum response at the lowest dilutions. Typically, six twofold serial dilutions of the serum from 1/4 to 1/128 were used.
Compounds were tested for their ability to reduce the diameter of the wheals at those intradermal sites which in control animals gave less than maximum response. Each dose of the compounds was administered to six rats at a measured time prior to intravenous challenge with ovalbumin. Control groups of six rats were given the same volume (0.2 ml: 100g^-1)of carrier fluid at the same time prior to the challenge.
The results were calculated as follows: % inhibition of PCA = 100 (1 - a/b) where a = the sum of the diameters of the wheals produced in the test animal at the sites of antibody dilutions as used in control groups and b = the mean sum of the diameters of the wheals produced in the control group of animals at those antibody sites where at least five out of six of the animals gave less than maximum response. A typical variation in the control group of animals was SEM+ 6%.

| SMILES | inhibition in vivo at 0.5 mg/kg |
| --- | --- |
| Cc1cc2c(cc1C)S(=O)(=O)c1nn[nH]c1C2=O [Example 7b, 6,7-Dimethyl-9-oxo-lH,9H-benzothiopyrano[2,3-d]-v-triazole-4,4-dioxide] | 56% |
| O=c1c2ccccc2[s+]([O-])c2nn[nH]c12 (racemic) [Example 9b, 9-Oxo-lH,9H-benzothiopyrano[2,3-dl-v-triazole-4-oxide] | 30% |
| COc1ccc2sc3nn[nH]c3c(=O)c2c1 [Example 8d, 7-Methoxy-9-oxo-lH,9H-benzothiopyrano[2,3-dl-v-triazole] | 34% |
| Cc1cc2sc3nn[nH]c3c(=O)c2cc1C [Example 6d, 6,7-Dimethyl-9-oxo-1H,9H-benzothiopyrano[2,3-d]-v-triazole] | 65% |

Same assay, conditions: iv, 0 h, dose 1 mg/kg, carrier PBS with NaHCO3, time 0 mins between administration and antigen challenge

| SMILES | inhibition in vivo at 1 mg/kg |
| --- | --- |
| O=c1c2ccccc2sc2nn[nH]c12 [Example 1f, 9-Oxo-1H,9H-benzothiopyrano[2,3-d]-v-triazole] | 35% |
| Cc1cc2c(cc1C)S(=O)(=O)c1nn[nH]c1C2=O [Example 7b, 6,7-Dimethyl-9-oxo-lH,9H-benzothiopyrano[2,3-d]-v-triazole-4,4-dioxide] | 59% |
| Cc1cc2sc3nn[nH]c3c(=O)c2cc1C [Example 6d, 6,7-Dimethyl-9-oxo-1H,9H-benzothiopyrano[2,3-d]-v-triazole] | 86% |

Same assay, conditions: iv, 0 h, dose 2.0 mg/kg, carrier PBS with NaHCO3, time 0 mins between administration and antigen challenge

| SMILES | inhibition in vivo at 2 mg/kg |
| --- | --- |
| Cc1cc2c(cc1C)S(=O)(=O)c1nn[nH]c1C2=O [Example 7b, 6,7-Dimethyl-9-oxo-lH,9H-benzothiopyrano[2,3-d]-v-triazole-4,4-dioxide] | 74% |
| O=c1c2ccccc2[s+]([O-])c2nn[nH]c12 (racemic) [Example 9b, 9-Oxo-lH,9H-benzothiopyrano[2,3-dl-v-triazole-4-oxide] | 61% |
| COc1ccc2sc3nn[nH]c3c(=O)c2c1 [Example 8d, 7-Methoxy-9-oxo-lH,9H-benzothiopyrano[2,3-dl-v-triazole] | 58% |
| Cc1cc2sc3nn[nH]c3c(=O)c2cc1C [Example 6d, 6,7-Dimethyl-9-oxo-1H,9H-benzothiopyrano[2,3-d]-v-triazole] | 90% |

Same assay, conditions: iv, 0 h, dose 10 mg/kg, carrier PBS with NaHCO3, time 0 mins between administration and antigen challenge

| SMILES | inhibition in vivo at 10 mg/kg |
| --- | --- |
| O=c1c2ccccc2sc2nn[nH]c12 [Example 1f, 9-Oxo-1H,9H-benzothiopyrano[2,3-d]-v-triazole] | 90% |
| Cc1ccc2c(c1)C(=O)c1[nH]nnc1S2(=O)=O [Example 4b, 7-Methyl-9-oxo-IH, 9H-benzothiopyrano[2,3-d]-v-triazole-4,4-dioxide] | 65% |
| O=C1c2ccccc2S(=O)(=O)c2nn[nH]c21 [Example 2b, 9-Oxo-1H,9H-benzothiopyrano[2,3-d]-v-triazole-4,4-dioxide] | 68% |
| Cc1ccc2sc3nn[nH]c3c(=O)c2c1 [Example 3d, 7-Nethyl-9-oxo-1H,9H-benzothiopyrano[2,3-d]-v-triazole] | 42% |
